# Assay: gradient 5% acetonitrile 3 min, to 50% in 2 min, to 85% in 15 min, held 3 min, 100 µL/min
# Conditions: column: Zorbax Extend-C18 2.1 x 50 mm; eluents: water / acetonitrile, 0.1% formic acid
# Method in brief: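 The mobile phases were water and acetonitrile, each with 0.1% formic acid, pumped at 100 μL/min through a Zorbax Extend-C18 column (2.1 × 50 mm, 1.8 μm). Pure standards were injected as mixtures of ~100 molecules and detected by a quadrupole time-of-flight mass spectrometer in positive and negative ionization mode. Retention time came from computationally picked adduct peaks, each inspected by hand.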
row,SMILES,RP-LC retention time [s]
1,CS(=O)(=O)N1CCC(CC(=O)NC2CCCCC2)C1 (stereo not given),668
2,CCc1nc(-c2ccc(-c3noc(C(C)NC(=O)c4ccco4)n3)cc2)cs1 (stereo not given),980
3,COc1cccc(NC(=O)c2sc(-c3cn(C(C)C)c4ncccc34)nc2C)c1,1060
4,CN(CC1CCOC1)C(=O)c1cc(F)cc(F)c1 (stereo not given),690
5,Cc1cc(C)cc(NC(=O)Cc2csc3nc(-c4cccc(Cl)c4)cn23)c1,1070
6,Cc1nc(-c2cn(C)c3ncccc23)sc1C(=O)Nc1ccc(Cl)cc1,1060
7,CCc1sc(NC(=O)c2cccc(NC(=O)C(CC)CC)c2)nc1-c1ccccc1,1170
8,CCc1noc(NC(C)=O)c1-c1ccc(C)c(S(=O)(=O)Nc2cccc(C)c2C)c1,897
9,Cc1ccccc1NC(=O)Cn1nc2cc(-c3ccccc3)nc(C)n2c1=O,907
10,O=c1[nH]cnc2scc(-c3ccc(Cl)cc3)c12,734
11,O=c1ccc(-c2ccc3c(c2)OCO3)nn1Cc1nc(-c2ccc(F)cc2)no1,988
12,O=C(Nc1cc(-c2cccnc2)no1)c1ccc(F)cc1,729
13,Cc1noc(C)c1-c1ccc(S(=O)(=O)Nc2cccc(F)c2)cc1,916
14,CC1(C(=O)NCc2ccc(F)cc2)CCN(C(=O)Nc2ccc3c(c2)OCCO3)CC1,653
15,Cc1cc(C)n(Cc2nc(-c3ccc(NC(=O)c4ccc5c(c4)OCO5)cc3)oc2C)n1,888
16,O=C(O)CCNS(=O)(=O)c1ccc(Cl)c(-c2nnc(-c3ccccc3)o2)c1,781
17,Cc1noc([C@@H]2CN(C(=O)c3ccoc3C)C[C@H]2C(N)=O)n1,599
18,O=S(=O)(c1ccc(Br)s1)N1CCN(S(=O)(=O)C2CC2)CC1,854
19,Cc1cc(Cl)ccc1S(=O)(=O)N1CCc2nn(CC(C)C)c(=O)n2CC1,919

row,SMILES,RP-LC retention time [s]
1,O=C(CCCNC(=O)c1cc(-c2ccco2)on1)Nc1cccc2cccnc12,805
2,CCOc1ccc2ncc(S(=O)(=O)c3ccc(OC)cc3)c(N3CCN(CC)CC3)c2c1,660
3,CCC1CCCCN1CCCNC(=O)CCc1cc2cc(OC)ccc2[nH]c1=O (stereo not given),596
4,CCN(CC)C(=O)c1ccc2nc(-c3ccc(C)c(C)c3)cn2c1,669
5,COc1ccc(CCC(=O)N2CCCC(C)(C(=O)NCc3ccc(C)cc3)C2)cc1 (stereo not given),932
6,CC(C)Cn1cc(CCNC(=O)c2ccc(C(F)(F)F)cc2)c2cccnc21,940
7,COc1ccc(C(=O)N2C[C@@H]3C[C@H]2C[C@@H]3NC(=O)c2cccs2)cc1F,712
8,Cc1nc2cc3c(cc2n1CC(=O)NCc1ccc(Cl)cc1)OCCO3,652
9,COc1ccccc1C1(CNC(=O)Nc2ccccc2F)CCOCC1,810
10,CCc1nc2ccccc2n1CC(=O)NCC(C)C,597
11,O=C1CCCc2c1cc(C(=O)Nc1ccc(F)cc1F)c(=O)n2-c1ccc(F)cc1,785
12,O=c1c2cc(-c3ccc(F)cc3)nn2cnn1Cc1nc(-c2cccc(C(F)(F)F)c2)no1,1200
13,COCCNC(=O)c1nc2ccccn2c1-c1ccc(Cl)cc1,731
14,COCCCNC(=O)[C@@H]1[C@H](c2cc(OC)c(OC)c(OC)c2)c2cc3c(cc2[C@H](O)[C@H]1CO)OCO3,630
15,CCCn1cc(S(=O)(=O)NCc2ccc(F)cc2Cl)c2cccnc21,948
16,CCn1ncc2ccc(C(N)=O)cc21,599
17,COCCNC(=O)C1Cc2ccccc2CN1S(=O)(=O)c1cccc(C)c1 (stereo not given),845
18,CCOC(=O)c1nnc2c(-c3ccc(F)cc3)c(C)nn2c1N,857

# More lines, now with the values ahead:
row,RP-LC retention time [s],SMILES
1,892,O=C(NCc1csc(-c2cccs2)n1)C1CCN(S(=O)(=O)c2ccc(F)cc2)CC1
2,846,O=S(=O)(c1ccc(-c2nnc(C3CCC3)o2)o1)N1CCCC1
3,817,CCn1nccc1C(=O)NC1CCN(C2=NS(=O)(=O)C(c3ccc(C)cc3)=C2C)CC1
4,884,Cc1noc([C@@H]2CC(F)(F)CN2S(=O)(=O)c2ccc(F)cc2)n1
5,924,Cc1ccc(F)c(NS(=O)(=O)c2ccc(-c3nnc(C4CCC4)o3)o2)c1
6,799,CCc1ccccc1NC(=O)N1CCC(n2cnc3ccc(C)cc3c2=O)CC1
7,653,CSc1ccc(CNC(=O)C2CCCN(c3ccc(N4CCOCC4)nn3)C2)cc1 (stereo not given)
8,688,CN(C)c1ccc(CNC(=O)c2nnc(-c3ccc(S(=O)(=O)N4CCCC4)cc3)o2)cc1
9,781,CN(C)C(=O)c1ccc2c(c1)N(CC(=O)NCCc1c[nH]c3ccccc13)C(=O)C1CCCCN21 (stereo not given)
10,821,Cc1ccnc(Nc2nc(-c3ccccc3C)cs2)c1
11,758,Cc1ccccc1NS(=O)(=O)c1cc2n(c1)CCN(C(C)C)C2=O
12,881,CCn1nc(CNC(=O)c2ccc(Br)o2)c2ccccc21
13,728,Cn1nnnc1SCC(=O)OCc1cc(-c2ccco2)on1
14,578,O=C(NCc1ccccc1)N1CCN(c2cnn3c(C4CC4)nnc3c2)CC1
15,649,COc1ccc(-c2nc3cnccn3c2Nc2ccc(C(=O)NCC3CCCO3)cc2)cc1 (stereo not given)
16,1070,CCc1nc(-c2csc(S(=O)(=O)N3CCCC(C(=O)Nc4cccc(F)c4)C3)c2)no1 (stereo not given)
17,966,Cn1c(=O)c(N2CCN(C(=O)c3ccc(F)c(Cl)c3)CC2)nc2ccccc21
18,870,COc1ccccc1NC(=O)NC1CCN(c2ccc(C)c(C)c2)C1=O (stereo not given)
19,628,O=C(Cc1ccccc1Cl)N1CCN(c2ccc3nncn3n2)CC1
20,582,O=C(c1cc2c(s1)CCC(C(=O)N1CCN(c3ccccn3)CC1)C2)N1CCOCC1 (stereo not given)
21,839,COc1ccc(N2CC(c3noc(-c4ccc(OC)c(OC)c4)n3)CC2=O)cc1 (stereo not given)
22,591,CC(C)NC(=O)N1CCCC(c2cccc(C(=O)NCCN3CCOCC3)c2)C1 (stereo not given)
23,1090,CC(C)Cc1nc(-c2ccccc2)oc1CC(=O)NCc1cccc(Cl)c1
24,558,CCC(=O)NCc1nc2c(n1C)CN(S(=O)(=O)c1cccc(F)c1)CC2
25,863,Cc1ccsc1C(=O)Nc1ccc(N2CCN(C3CCCCC3)C2=O)nc1
26,891,Cc1oc2ccn(Cc3ccccc3F)c(=O)c2c1C(=O)NCC1CCCO1 (stereo not given)
27,869,CCCn1cc(S(=O)(=O)Nc2ccccc2F)c2cccnc21

row,RP-LC retention time [s],SMILES
1,1270,Cc1ccccc1-c1nc(-c2ccc3c(c2)oc(=O)n3C(C)C)no1
2,611,Cc1ccc2oc(C(=O)N3CCC(CCN4CCCCC4)CC3)cc(=O)c2c1
3,900,CC(C)(C)c1nnc(-c2ccc3c(c2)OCO3)o1
4,731,CCN1C(=O)C2(CCN(S(=O)(=O)c3c(C)noc3C)CC2)c2ccccc21
5,692,COc1ccc(N(Cc2nnc3n2CCCCC3)C(=O)Nc2ccccc2)cc1OC
6,614,COc1ccc(C(=O)Nc2ccc3nc(N4CCN(C5CCCCC5)CC4)cc(C(=O)O)c3c2)cc1
7,658,CCC1CN2C=NC(N3CCN(C(=O)Nc4cc(C)ccc4OC)CC3)=CC2=N1 (stereo not given)
8,917,O=C1CC(c2noc(C3CCCC3)n2)CN1c1ccccc1 (stereo not given)
9,943,Cc1ccc(NC(=O)N2CCc3c(c(-c4nnc(-c5ccc(F)cc5)o4)nn3C)C2)cc1C
10,831,CCCCn1nc2c(S(=O)(=O)N3CCCCC3)cccn2c1=O
11,705,Cc1ccc(C)c(NC(=O)Cn2cnc3nc4c(cc3c2=O)CCCC4)c1
12,725,Clc1cccc(N2CCN(c3ncnc4[nH]ncc34)CC2)c1
13,818,CC1=C(c2ccccc2)S(=O)(=O)N=C1N1CCCN(C(=O)NCCC(C)C)CC1
14,641,CCc1nc2cccnc2n1CCN1CCN(C(=O)Nc2ccccc2Br)CC1
15,620,CN1CCN(CCCNC(=O)c2cc3occc3c(Nc3ccc(Cl)cc3)n2)CC1
16,1020,CCc1nc(-c2cc(S(=O)(=O)N3CCC(C(=O)Nc4cccc(C#N)c4)CC3)c(C)s2)no1
17,806,O=C(CCc1conc1-c1ccccc1)NCc1ccc2c(c1)OCO2
18,710,CN1CCC(C2CCN(S(=O)(=O)c3ccccc3Cl)C2)CC1 (stereo not given)
19,1020,CCOC(=O)C(C)c1c(C(=O)c2ccc(C)nc2)c2ccccc2n1C (stereo not given)
20,831,COc1ccccc1C(=O)N1CCCC1c1cc(C(C)C)no1 (stereo not given)
21,843,CC1CCN(C(=O)C2CCc3sc(C(=O)N4CCCC4)cc3C2)CC1 (stereo not given)
22,1140,CC1CCN(c2nnc(-c3nc(C4CC4)no3)c3ccccc23)CC1
23,852,CCOC(=O)C1CCc2sc(NC(=O)c3n[nH]c4ccccc34)nc21 (stereo not given)
24,757,CCc1c(C(=O)O)nnn1-c1cccc(Br)c1
25,697,COc1ccc2c(c1)c(CN1CCC(C(=O)NCc3ccccc3C)CC1)cn2C
26,764,COc1cccc(N2CCN(C(=O)C3CCN(S(=O)(=O)c4cn(C(C)C)cn4)CC3)CC2)c1
